Assay results reported in paper PMC6407917, “Identification of GSK3186899/DDD853651 as a Preclinical Development Candidate for the Treatment of Visceral Leishmaniasis” (Journal of Medicinal Chemistry, 2018).
pIC50: −log10 of the molar value.

Columns and labels:
Assay in all cases: biochemical
Parameters in all cases: species or system HEK293/K-562/placenta mixed human extract; Kinobeads chemoproteomic competition binding, quantified by TMT LC-MS/MS, dose response up to 20 uM
[1] = target: PRKDC (Homo sapiens, UniProt P78527)
[2] = target: NEK1 (Homo sapiens, UniProt Q96PY6)
[3] = target: MAP2K2 (Homo sapiens, UniProt P36507)
[4] = target: EPHA5 (Homo sapiens, UniProt P54756)
[5] = target: PHKG2 (Homo sapiens, UniProt P15735)
[6] = target: RPS6KA1 (Homo sapiens, UniProt Q15418)
[7] = target: PRKD3 (Homo sapiens, UniProt O94806)
[8] = target: BTK (Homo sapiens, UniProt Q06187)
[9] = target: TYK2 (Homo sapiens, UniProt P29597)
[10] = target: MAP3K3 (Homo sapiens, UniProt Q99759)
[11] = target: NUAK1 (Homo sapiens, UniProt O60285)
[12] = target: PRKAG2 (Homo sapiens, UniProt Q9UGJ0)
[13] = target: STK17A (Homo sapiens, UniProt Q9UEE5)
[14] = target: EPHA2 (Homo sapiens, UniProt P29317)
[15] = target: JAK2 (Homo sapiens, UniProt O60674)
[16] = target: EPHA3 (Homo sapiens, UniProt P29320)
[17] = target: EPHA4 (Homo sapiens, UniProt P54764)
[18] = target: TBK1 (Homo sapiens, UniProt Q9UHD2)
[19] = target: NEK6 (Homo sapiens, UniProt Q9HC98)
[20] = target: EPHA7 (Homo sapiens, UniProt Q15375)
[21] = target: CDK10 (Homo sapiens, UniProt Q15131)

TBK1, sequence (Q9UHD2 whole entry): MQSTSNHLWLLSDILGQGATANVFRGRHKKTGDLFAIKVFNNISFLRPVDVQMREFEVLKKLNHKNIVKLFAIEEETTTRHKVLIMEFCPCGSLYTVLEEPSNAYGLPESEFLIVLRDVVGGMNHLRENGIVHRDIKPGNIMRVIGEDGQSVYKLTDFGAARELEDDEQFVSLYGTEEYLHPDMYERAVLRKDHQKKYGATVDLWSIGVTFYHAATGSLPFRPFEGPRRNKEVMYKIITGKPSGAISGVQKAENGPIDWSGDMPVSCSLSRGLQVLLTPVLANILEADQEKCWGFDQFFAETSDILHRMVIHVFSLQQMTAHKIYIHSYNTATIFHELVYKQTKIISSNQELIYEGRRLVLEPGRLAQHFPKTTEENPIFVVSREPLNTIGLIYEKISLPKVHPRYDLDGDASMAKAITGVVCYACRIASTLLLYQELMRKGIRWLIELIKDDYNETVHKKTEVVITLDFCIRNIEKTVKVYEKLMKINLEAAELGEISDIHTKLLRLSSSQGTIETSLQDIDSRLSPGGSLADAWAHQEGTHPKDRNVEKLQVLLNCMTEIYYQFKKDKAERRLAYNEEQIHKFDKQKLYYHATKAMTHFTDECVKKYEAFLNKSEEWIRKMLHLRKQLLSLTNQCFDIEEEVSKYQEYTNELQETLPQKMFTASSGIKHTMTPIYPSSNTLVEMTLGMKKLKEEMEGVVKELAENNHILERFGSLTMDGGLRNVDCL
PRKD3, sequence (O94806 whole entry): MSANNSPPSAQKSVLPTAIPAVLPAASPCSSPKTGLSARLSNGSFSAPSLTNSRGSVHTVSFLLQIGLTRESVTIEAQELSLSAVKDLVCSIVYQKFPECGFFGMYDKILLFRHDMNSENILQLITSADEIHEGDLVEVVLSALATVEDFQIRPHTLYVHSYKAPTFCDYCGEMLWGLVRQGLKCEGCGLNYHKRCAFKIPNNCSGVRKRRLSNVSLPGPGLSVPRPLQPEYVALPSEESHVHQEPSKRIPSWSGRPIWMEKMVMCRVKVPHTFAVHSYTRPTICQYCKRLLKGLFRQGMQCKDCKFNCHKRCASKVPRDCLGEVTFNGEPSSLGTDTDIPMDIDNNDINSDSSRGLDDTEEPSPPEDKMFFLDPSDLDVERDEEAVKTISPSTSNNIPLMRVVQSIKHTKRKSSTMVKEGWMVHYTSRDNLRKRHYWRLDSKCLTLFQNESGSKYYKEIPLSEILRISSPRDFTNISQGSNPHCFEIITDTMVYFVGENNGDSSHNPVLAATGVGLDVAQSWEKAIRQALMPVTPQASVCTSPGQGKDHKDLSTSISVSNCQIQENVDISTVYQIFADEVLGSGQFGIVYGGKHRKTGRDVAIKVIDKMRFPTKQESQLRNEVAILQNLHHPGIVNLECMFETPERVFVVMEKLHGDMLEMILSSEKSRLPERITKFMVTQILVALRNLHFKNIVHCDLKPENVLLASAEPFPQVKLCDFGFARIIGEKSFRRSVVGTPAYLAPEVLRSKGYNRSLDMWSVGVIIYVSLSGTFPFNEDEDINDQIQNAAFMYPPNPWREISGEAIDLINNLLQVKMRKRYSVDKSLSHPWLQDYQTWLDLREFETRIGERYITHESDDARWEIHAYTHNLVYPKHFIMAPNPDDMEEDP
EPHA5, sequence (P54756 whole entry): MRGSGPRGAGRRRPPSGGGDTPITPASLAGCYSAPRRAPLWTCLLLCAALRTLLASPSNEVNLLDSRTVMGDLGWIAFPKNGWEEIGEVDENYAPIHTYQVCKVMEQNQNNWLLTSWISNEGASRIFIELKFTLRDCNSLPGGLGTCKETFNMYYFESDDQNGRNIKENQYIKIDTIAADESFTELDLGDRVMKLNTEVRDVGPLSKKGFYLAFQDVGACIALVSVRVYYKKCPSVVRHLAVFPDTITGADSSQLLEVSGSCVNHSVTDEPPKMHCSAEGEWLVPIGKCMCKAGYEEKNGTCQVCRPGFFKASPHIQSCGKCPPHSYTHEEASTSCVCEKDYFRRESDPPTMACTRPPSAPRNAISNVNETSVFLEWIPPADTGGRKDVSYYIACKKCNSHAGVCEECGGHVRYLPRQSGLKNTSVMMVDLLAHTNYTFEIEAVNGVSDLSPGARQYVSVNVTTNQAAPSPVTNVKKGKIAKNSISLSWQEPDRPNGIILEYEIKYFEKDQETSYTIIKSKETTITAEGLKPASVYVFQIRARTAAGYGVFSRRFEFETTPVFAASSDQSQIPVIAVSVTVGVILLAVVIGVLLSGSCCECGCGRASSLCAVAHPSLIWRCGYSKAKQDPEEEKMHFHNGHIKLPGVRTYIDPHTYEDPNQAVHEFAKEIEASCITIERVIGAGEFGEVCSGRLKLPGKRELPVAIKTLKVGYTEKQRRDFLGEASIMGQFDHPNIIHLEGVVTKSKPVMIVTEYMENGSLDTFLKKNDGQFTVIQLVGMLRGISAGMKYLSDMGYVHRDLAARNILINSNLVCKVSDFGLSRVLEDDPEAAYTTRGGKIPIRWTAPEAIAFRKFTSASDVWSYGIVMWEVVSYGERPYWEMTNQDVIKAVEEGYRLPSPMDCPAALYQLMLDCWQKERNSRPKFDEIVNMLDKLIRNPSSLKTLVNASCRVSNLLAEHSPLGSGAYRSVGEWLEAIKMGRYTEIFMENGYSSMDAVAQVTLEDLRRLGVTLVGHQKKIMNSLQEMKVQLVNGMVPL
NUAK1, sequence (O60285 whole entry): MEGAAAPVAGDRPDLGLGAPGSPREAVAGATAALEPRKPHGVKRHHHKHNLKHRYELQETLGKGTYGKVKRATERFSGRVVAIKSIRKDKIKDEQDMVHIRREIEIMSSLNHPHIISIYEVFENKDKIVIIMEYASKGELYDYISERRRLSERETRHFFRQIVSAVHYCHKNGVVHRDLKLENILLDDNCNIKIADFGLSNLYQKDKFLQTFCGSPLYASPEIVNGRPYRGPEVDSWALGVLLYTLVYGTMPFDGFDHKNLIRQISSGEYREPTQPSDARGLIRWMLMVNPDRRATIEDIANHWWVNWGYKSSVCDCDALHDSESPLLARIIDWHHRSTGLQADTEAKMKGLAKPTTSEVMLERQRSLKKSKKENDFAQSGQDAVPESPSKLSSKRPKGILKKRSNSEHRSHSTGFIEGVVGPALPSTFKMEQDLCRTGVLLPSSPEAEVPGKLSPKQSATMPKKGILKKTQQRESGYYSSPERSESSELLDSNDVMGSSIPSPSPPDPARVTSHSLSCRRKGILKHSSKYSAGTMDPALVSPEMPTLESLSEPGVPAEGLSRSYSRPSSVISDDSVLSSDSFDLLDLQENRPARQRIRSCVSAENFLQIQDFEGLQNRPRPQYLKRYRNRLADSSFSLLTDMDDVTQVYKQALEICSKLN
EPHA2, sequence (P29317 whole entry): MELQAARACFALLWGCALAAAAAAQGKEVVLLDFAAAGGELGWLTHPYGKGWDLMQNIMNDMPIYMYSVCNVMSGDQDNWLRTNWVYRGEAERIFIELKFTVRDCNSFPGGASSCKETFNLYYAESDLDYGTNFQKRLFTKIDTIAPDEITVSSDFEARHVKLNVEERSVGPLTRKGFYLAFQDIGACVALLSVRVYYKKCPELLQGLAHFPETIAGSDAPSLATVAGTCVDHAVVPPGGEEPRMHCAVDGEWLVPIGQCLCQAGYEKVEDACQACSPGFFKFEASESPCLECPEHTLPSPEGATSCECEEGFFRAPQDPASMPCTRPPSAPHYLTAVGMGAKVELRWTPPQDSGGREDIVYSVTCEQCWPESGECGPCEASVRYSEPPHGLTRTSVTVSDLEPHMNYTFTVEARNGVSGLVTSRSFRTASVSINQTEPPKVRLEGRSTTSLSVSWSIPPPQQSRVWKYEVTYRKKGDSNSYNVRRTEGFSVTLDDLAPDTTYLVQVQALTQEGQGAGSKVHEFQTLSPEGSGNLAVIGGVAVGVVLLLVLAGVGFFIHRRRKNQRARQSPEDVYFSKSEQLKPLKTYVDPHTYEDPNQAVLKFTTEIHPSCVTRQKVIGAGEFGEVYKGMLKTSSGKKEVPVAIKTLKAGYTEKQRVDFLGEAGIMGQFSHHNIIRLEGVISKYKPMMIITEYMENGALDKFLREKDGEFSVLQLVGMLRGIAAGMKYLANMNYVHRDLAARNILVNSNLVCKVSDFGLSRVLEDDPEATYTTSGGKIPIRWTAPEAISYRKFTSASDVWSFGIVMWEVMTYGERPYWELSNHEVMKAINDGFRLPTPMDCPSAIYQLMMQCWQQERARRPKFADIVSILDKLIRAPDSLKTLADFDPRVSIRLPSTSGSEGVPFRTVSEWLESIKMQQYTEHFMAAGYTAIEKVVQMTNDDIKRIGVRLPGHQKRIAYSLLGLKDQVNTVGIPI
STK17A, sequence (Q9UEE5 whole entry): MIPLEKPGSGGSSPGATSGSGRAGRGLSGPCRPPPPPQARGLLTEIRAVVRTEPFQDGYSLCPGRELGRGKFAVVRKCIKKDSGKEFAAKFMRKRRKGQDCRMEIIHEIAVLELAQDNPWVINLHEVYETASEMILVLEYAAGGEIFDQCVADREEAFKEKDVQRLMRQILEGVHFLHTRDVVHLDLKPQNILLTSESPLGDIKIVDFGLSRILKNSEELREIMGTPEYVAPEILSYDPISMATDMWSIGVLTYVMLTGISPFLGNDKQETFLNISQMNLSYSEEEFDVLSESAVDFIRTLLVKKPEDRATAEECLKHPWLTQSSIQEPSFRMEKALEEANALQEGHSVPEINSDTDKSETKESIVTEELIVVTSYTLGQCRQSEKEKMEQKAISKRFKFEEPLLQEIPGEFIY
NEK6, sequence (Q9HC98 whole entry): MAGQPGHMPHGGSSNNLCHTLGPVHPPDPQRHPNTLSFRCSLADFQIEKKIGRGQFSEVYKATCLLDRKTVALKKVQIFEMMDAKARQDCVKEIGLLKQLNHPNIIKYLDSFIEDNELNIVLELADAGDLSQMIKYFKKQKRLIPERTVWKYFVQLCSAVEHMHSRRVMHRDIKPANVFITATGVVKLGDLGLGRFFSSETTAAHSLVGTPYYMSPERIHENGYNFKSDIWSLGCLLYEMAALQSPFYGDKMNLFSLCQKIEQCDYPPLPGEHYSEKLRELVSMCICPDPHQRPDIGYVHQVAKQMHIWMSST

## COc1ccccc1-c1n[nH]c2nc(N[C@H]3CC[C@H](NS(=O)(=O)CCC(F)(F)F)CC3)nc(OC)c12 [compound 31, 3,3,3-Trifluoro-N-(trans-4-((4-methoxy-3-(2-methoxyphenyl)-1H-pyrazolo[3,4-d]pyrimidin-6-yl)amino)cyclohexyl)propane-1-sulfonamide]
[1]
  pIC50: ≤ 4.70
[2]
  pIC50: ≤ 4.70
[3]
  pIC50: ≤ 4.70
[4]
  pIC50: ≤ 4.70
[5]
  pIC50: ≤ 4.70
[6]
  pIC50: ≤ 4.70
[7]
  pIC50: ≤ 4.70
[8]
  pIC50: ≤ 4.70
[9]
  pIC50: ≤ 4.70
[10]
  pIC50: ≤ 4.70
[11]
  pIC50: ≤ 4.70
[12]
  pIC50: ≤ 4.70
[13]
  pIC50: ≤ 4.70
[14]
  pIC50: ≤ 4.70
[15]
  pIC50: ≤ 4.70
[16]
  pIC50: ≤ 4.70
[17]
  pIC50: ≤ 4.70
[18]
  pIC50: ≤ 4.70
[19]
  pIC50: ≤ 4.70
[20]
  pIC50: ≤ 4.70
[21]
  pIC50: 5.59
